The source of these data is ChEMBL document CHEMBL1671867, “Novel polymyxin derivatives carrying only three positive charges are effective antibacterial agents” (Antimicrob Agents Chemother, 2008).

Bridge positions count the residues as written; N and C are the ends. Square brackets hold non-standard residues; d marks the D form. Peptide text beside a SMILES is read from it. * marks the point of attachment. Octanoyl = CCCCCCCC(=O)*; Dab = NCC[C@H](N)C(=O)O; Abu = CC[C@H](N)C(=O)O

Experiment [1] has as its system Escherichia coli. The experiment can be described thus: Antibacterial activity against Escherichia coli IH3080 assessed as growth inhibition at 10 ug after 18 hrs by […] in presence of 1 ug/ml rifampin. The class given is functional.
Experiment [2] has as its system Escherichia coli. Kind of experiment: Antibacterial activity against Escherichia coli IH3080 assessed as growth inhibition at 10 ug after 18 hrs by […]. It counts as functional. (In general: Agar dilution tests growth on a series of plates holding different concentrations.)

Turning to `CCCCCCCC(=O)N[C@H](C(=O)N[C@H](C(=O)N[C@H](CO)C(=O)N[C@H]1CCNC(=O)[C@H]([C@@H](C)O)NC(=O)[C@H](CCN)NC(=O)[C@H](CCN)NC(=O)[C@H](CC(C)C)NC(=O)[C@H](Cc2ccccc2)NC(=O)[C@H](CCN)NC1=O)[C@@H](C)O)[C@@H](C)O`, the “inhibition zone (IZ)” value in experiment [1] is reported as 190 mm2; in experiment [2], 160 mm2.
As for `CCCCCCCC(=O)N[C@H](C(=O)N[C@@H](CCN)C(=O)N[C@H]1CCNC(=O)[C@H]([C@@H](C)O)NC(=O)[C@H](CCN)NC(=O)[C@H](CC)NC(=O)[C@H](CC(C)C)NC(=O)[C@@H](Cc2ccccc2)NC(=O)[C@H](CCN)NC1=O)[C@@H](C)O` (Octanoyl-T[Dab][Dab][Dab][dF]L[Abu][Dab]T; lactam 3-C), the “inhibition zone (IZ)” value in experiment [1] is 250 mm2; in experiment [2] it was 60 mm2.
On to `CCCCCCCC(=O)N[C@H](C(=O)N[C@@H](CCN)C(=O)N[C@H]1CCNC(=O)[C@H]([C@@H](C)O)NC(=O)[C@H](CCN)NC(=O)[C@H](CCN)NC(=O)[C@H](CC(C)C)NC(=O)[C@@H](Cc2ccccc2)NC(=O)[C@H](CC)NC1=O)[C@@H](C)O` (Octanoyl-T[Dab][Dab][Abu][dF]L[Dab][Dab]T; lactam 3-C), for which the “inhibition zone (IZ)” value in experiment [1] worked out at 100 mm2; in experiment [2] it was 0 mm2.
For the compound `CCCCCCCC(=O)N[C@H](C(=O)N[C@@H](CC(N)=O)C(=O)N[C@H]1CCNC(=O)[C@H]([C@@H](C)O)NC(=O)[C@H](CCN)NC(=O)[C@H](CCN)NC(=O)[C@H](CC(C)C)NC(=O)[C@H](Cc2ccccc2)NC(=O)[C@H](CCN)NC1=O)[C@@H](C)O` (Octanoyl-TN[Dab][Dab]FL[Dab][Dab]T; lactam 3-C), the figures for the “inhibition zone (IZ)” value in experiment [1] and in experiment [2] were 180 mm2 and 10 mm2, respectively.
As to `CCCCCCCC(=O)N[C@H](C)C(=O)N[C@H](C)C(=O)N[C@H]1CCNC(=O)[C@H]([C@@H](C)O)NC(=O)[C@H](CCN)NC(=O)[C@H](CCN)NC(=O)[C@H](CC(C)C)NC(=O)[C@H](Cc2ccccc2)NC(=O)[C@H](CCN)NC1=O`, the entries for the “inhibition zone (IZ)” value in experiment [1] and in experiment [2] were 200 mm2 and 0 mm2, respectively.
As for `CCCCCCCC(=O)N[C@H](C(=O)N[C@@H](CC)C(=O)N[C@H]1CCNC(=O)[C@H]([C@@H](C)O)NC(=O)[C@H](CCN)NC(=O)[C@H](CC)NC(=O)[C@H](CC(C)C)NC(=O)[C@@H](Cc2ccccc2)NC(=O)[C@H](CCN)NC1=O)[C@@H](C)O` (Octanoyl-T[Abu][Dab][Dab][dF]L[Abu][Dab]T; lactam 3-C), the “inhibition zone (IZ)” value in experiment [1] stood at 10 mm2; in experiment [2], 0 mm2.
In the case of `CCCCCCCC(=O)N[C@@H](CCN)C(=O)N[C@H](C(=O)N[C@@H](CCN)C(=O)N[C@H]1CCNC(=O)[C@H]([C@@H](C)O)NC(=O)[C@H](CCN)NC(=O)[C@H](CC)NC(=O)[C@H](CC(C)C)NC(=O)[C@@H](Cc2ccccc2)NC(=O)[C@H](CC)NC1=O)[C@@H](C)O` (Octanoyl-[Dab]T[Dab][Dab][Abu][dF]L[Abu][Dab]T; lactam 4-C), the “inhibition zone (IZ)” value in experiment [1] and in experiment [2] was 0 mm2 throughout.
With `CCCCCCCC(=O)N[C@H](C(=O)N[C@@H](C(=O)N[C@H]1CCNC(=O)[C@H]([C@@H](C)O)NC(=O)[C@H](CCN)NC(=O)[C@H](CCN)NC(=O)[C@H]([C@@H](C)O)NC(=O)[C@H](Cc2ccccc2)NC(=O)[C@H](CCN)NC1=O)[C@@H](C)O)[C@@H](C)O`, the “inhibition zone (IZ)” value in experiment [1] was found to be 250 mm2; in experiment [2], 200 mm2.
Regarding `CC(C)C[C@@H]1NC(=O)[C@@H](Cc2ccccc2)NC(=O)[C@H](CCN)NC(=O)[C@@H](NC(=O)[C@H](CCN)NC(=O)[C@@H](N)[C@@H](C)O)CCNC(=O)[C@H]([C@@H](C)O)NC(=O)[C@H](CCN)NC(=O)[C@H](CCN)NC1=O` [POLYMYXIN B NONAPEPTIDE] (H-T[Dab][Dab][Dab][dF]L[Dab][Dab]T; lactam 3-C), the “inhibition zone (IZ)” value in experiment [1] was 143 mm2; in experiment [2], “<=5 mm2”.
